# Data published in patent US20190365666A1, “METHODS FOR PREVENTION AND TREATMENT OF CARDIOMETABOLIC SYNDROME AND COMPOSITIONS USED THEREIN” (OmniActive Health Technologies Limited, priority 2015, published 2019).
# What was measured:
# [1] = system: BCO2, TNF-α, PPAR-γ, Nrf-2, NFkB, IRS-1, HO-1 in liver tissue; experiment: Western blot of liver tissue markers in HFD treated rats; format: in vivo, Sprague Dawley rats; conditions: P<0.001
# [2] = Oxidative stress markers and antioxidant status (TBARS/MDA, TAC, SOD, CAT, GSHPx) in serum, retina and liver of control and HFD rats; format: in vivo, Sprague Dawley rats; conditions: 2.5 mg/kg daily, 12 weeks
# Experimental: (§1) Male Sprague Dawley rats (7 rats/group, age: 8 week, weight: 180±20 g) were housed in a controlled environment with a 12:12-h light-dark cycle at 22° C. and provided with rat chow and water ad libitum. All experiments were conducted under the National Institutes of Health's Guidelines for the Care and Use of Laboratory Animals and approved by the Ethics Committee of the Veterinary Control Institute. After acclimation for 2 weeks, the rats were divided into four groups: Rats were randomly divided into the following groups: (1) Control, (2) High Fat Diet (HFD) (42% of calories from fat), (3) control+beta-cryptoxanthin (2.5 mg/kg) 4) HFD (42% of calories from fat)+beta-cryptoxanthin (2.5 mg/kg) was administered daily as supplement for 12 weeks.
# (§2) After a one week period of adaptation to laboratory conditions, the animals were randomly divided into four equal groups: 1) Control (n=7): untreated rats were allowed free access to a standard diet; 2) BCX Group, rats were fed a standard diet supplemented with beta-cryptoxanthin (n=7) 2.5 mg/kg; 3) HFD Group (high-fat diet; 42% of calories from fat; n=7): rats were fed a high-fat diet 4) HFD+BCX Group, rats were fed a high-fat diet (42% of calories from fat; n=7) supplemented with beta-cryptoxanthin 2.5 mg/kg. 5% suspension of beta-cryptoxanthin was dissolved in corn oil. At the end of the experiment, all rats were sacrificed by cervical dislocation. Blood samples were taken from rats in the morning upon overnight fasting for biochemical analyses and their visceral fat and liver samples were removed and weighed after sacrificing the animals.
# The total antioxidant capacity (TAC) was measured using an antioxidant assay kit (Sigma, St Louis, Mo., USA). Trolox was used as an antioxidant standard to calculate Trolox equivalent antioxidant capacity; absorbance readings were taken at 520 nm. Lipid peroxidation was measured in terms of MDA formation, which is the major product of membrane lipid peroxidation done by a previously described method (Karatepe, 2004) with slight modification.
# The liver MDA content was measured by high performance liquid chromatography (HPLC, Shimadzu, Tokyo, Japan) using a Shimadzu UV-vis SPD-10 AVP detector and a CTO-10 AS VP column in a mobile phase consisting of 30 mM KH2PO4 and methanol (82.5+17.5, v/v; pH 3.6) at a flow rate of 1.2 ml/min. Column effluents were monitored at 250 nm and the volume was 20 μl. The liver homogenate (10%, w/v) was prepared in 10 mM phosphate buffer (pH 7.4), centrifuged at 13,000×g for 10 min at 4° C., and the supernatant was collected and stored at −80° C. for MDA analysis (Karatepe, 2004). Activities of superoxide dismutase (SOD), catalase (CAT) and glutathione peroxidase (GPx) of homogenized liver were measured using a commercial kit (Cayman Chemical, Ann Arbor, Mich., USA) according to the manufacturer's instructions.
# [3] = system: VEGF, Nrf-2, NFkB, iNOS, ICAM-1, HO-1 in retina tissue; experiment: Western blot of retina tissue markers in HFD treated rats; format: in vivo, Sprague Dawley rats; conditions: FIG. 8
# [4] = system: BCO2, TNF-α, PPAR-γ, Nrf-2, NFkB, IRS-1, HO-1 in liver tissue; experiment: Western blot of liver tissue markers in HFD treated rats; format: in vivo, Sprague Dawley rats
# Experimental: as §2
# For Western blot analyses protein extraction was performed by homogenizing the liver in 1 ml ice-cold hypotonic buffer A, containing 10 mM2-[4-(2-Hydroxyethyl)-1-piperazinyl] ethanesulfonic acid [HEPES] (pH 7.8), 10 mMKCl, 2 mM MgCl2, 1 mM DTT, 0.1 mM EDTA, and 0.1 mM phenylmethylsulfonyl-fluoride (PMSF). The homogenates were added with 80 μl of 10% Nonidet P-40 (NP-40) solution and then centrifuged at 14,000×g for 2 min. The precipitates were washed once with 500 μl of buffer A plus 40 μl of 10% NP-40, centrifuged, re-suspended in 200 μl of buffer C [50 mM HEPES [pH 7.8], 50 mMKCl, 300 mM NaCl, 0.1 mM EDTA, 1 mM dihiothreitol [DTT], 0.1 mM PMSF, 20% glycerol], and recentrifugedat 14,800×g for 5 min. The supernatants were collected for determinations of NF-KB, VEGF, iNOS, ICAM, Nrf2, and HO-1 according to the method described by Sahin et al. [2012]. Equal amounts of protein (50 μg) were electrophoresed and subsequently transferred onto a nitrocellulose membrane (Schleicher and Schuell Inc., Keene, N.H., USA).
# Antibodies against NF-κB, TNF-α, Nrf2, HO-1, PPAR-γ, and p-IRS1, (Abcam (Cambridge, UK) were diluted (1:1000) in the same buffer containing 0.05% Tween-20. Protein loading was controlled sing a monoclonal mouse antibody against β-actin (A5316; Sigma). Bands were analyzed densitometrically using an image analysis system (Image J; National Institute of Health, Bethesda, USA). (FIG. 12)
# [5] = system: differentiated 3T3-L1 cells; experiment: Real time PCR gene expression (nutrigenomics) study in differentiated 3T3-L1 adipocytes; format: cell-based, murine; conditions: 12.5 ug/mL, versus DMSO
# Experimental: 3T3L1 murine adipocytes model system was used to understand basic cellular mechanisms associated with diabetes, obesity and related disorders. Nutrigenomics study was carried out to evaluate effect of beta-cryptoxanthin on adipocyte cells, particularly differentiated 3T3-L1 cells, the study was based on real-time polymerase chain reaction (Real time PCR) with dose 12.5 ug/mL. The effect of beta-cryptoxanthin on Adipocyte differentiation and its activity for bio markers PPARG, SCD-1, acetyl Coa carboxylase (ACC), SREBP-1, C/EBPα and FAS were evaluated.
# See FIG. 4, where each set of bar graphs for tests with BCX and without BCX (DMSO) correspond from the leftside bar respectively with the heading legend of the factors tested (i.e. for the bar results of BCX, 0.9 for ACC alpha, 0.39 for C/EPB alpha, 0.33 for FAS, 0.7 for PPAR gamma, and 0.38 for SCD-1).
# [6] = Body weight, feed intake, visceral fat and liver weight in control and high fat diet rats; format: in vivo, Sprague Dawley rats; conditions: 2.5 mg/kg daily, 12 weeks
# Experimental: as §1
# The experiment was performed using 28 male Sprague-Dawley rats (8 weeks old, weighing 180±20 g), purchased from the Inonu University Laboratory Animal Research Center (Malatya, Turkey). Rats were housed in cages in a temperature and humidity controlled environment, on a 12-hr light and 12-hr dark cycle, designed for the purpose of the study. The temperature inside the rat cages was 21±2° C., relative humidity was 55±5% and consecutive light-dark cycles lasted 12 hours. The protocol of the study was approved by the Animal Experimentation Ethics Committee of Inonu University (Malatya, Turkey). All procedures involving rats were conducted in strict compliance with relevant laws, the Animal Welfare Act, Public Health Services Policy, and guidelines established by the Institutional Animal Care and Use Committee of the Institute. Prior the starting the experiment, animals were assigned to either a regular diet (control; 12% of calories from fat) or a high-fat diet (HFD, 42% of calories from fat). Control or HFD composed according to the American Institute of Nutrition AIN-93 (Reeves et al., 1993) recommendations of casein (20%), soybean oil (7%), wheat starch (53.2%), sucrose (10%), potato starch (5%), 1-cysteine (0.3%), vitamin mix AIN-93M (1%) and mineral mix AIN-93M (3.5%). The high-fat diets (42% calories from fat) were obtained from the basal AIN-93 diet, by replacement of wheat starch with fat (tallow 15% and soybean oil 10%). For induction of obesity (insulin resistance), the rats were fed with HFD for 12 weeks
# as §2
# [7] = Serum glucose, insulin, leptin, adiponectin and lipid profile in control and HFD rats; format: in vivo, Sprague Dawley rats; conditions: 2.5 mg/kg daily, 12 weeks
# Experimental: as §1, §2
# Blood was collected by cardiac puncture using an anticoagulant-free vacutainer tube, later centrifuged at 3,000×g for 10 min to obtain serum and kept frozen at −80° C. until it was assayed for biochemical parameters and malondialdehyde (MDA). Serum biochemical parameters were estimated using an automatic analyzer (Samsung LABGEO PT10, Samsung Electronics Co, Suwon, Korea). Repeatability and device/method precision of LABGEO^PT10 was established according to the IVR-PT06 guideline. Serum insulin, leptin and adiponectin levels were measured with the Rat Insulin Kit (Linco Research Inc, St. Charles, Mo., USA) by ELISA (Elx-800; Bio-Tek Instruments Inc, Vermont, USA).
# [8] = HFD rats, listed as BC, 2.5 mg/kg
# [9] = HFD rats, listed as Beta-cryptoxanthin, 2.5 mg/kg
# [10] = HFD rats, Western blot, P<0.001
structure (smiles),measurement,setting,value
"CC1=C(/C=C/C(C)=C/C=C/C(C)=C/C=C/C=C(C)/C=C/C=C(C)/C=C/C2=C(C)C[C@@H](O)CC2(C)C)C(C)(C)CCC1 [BCX, beta-cryptoxanthin]",enhancement of liver PPAR-α level,[1],3.53 fold
same,Liver CAT,"[2]; HFD rats, 2.5 mg/kg",increased
same,Liver SOD,"[2]; HFD rats, 2.5 mg/kg",increased
same,Liver TBARS,"[2]; HFD rats, 2.5 mg/kg",decreased
same,Retinal TBARS,"[2]; HFD rats, 2.5 mg/kg",reducing
same,Serum TAC,"[2]; HFD rats, 2.5 mg/kg",increased
same,Serum TBARS,"[2]; HFD rats, 2.5 mg/kg",reducing
same,Liver CAT,[2]; [8],271.57 U/mg protein
same,Liver GSHPx,[2]; [8],17.43 U/mg protein
same,Liver SOD,[2]; [8],130.43 U/mg protein
same,Liver TBARS,[2]; [8],2.98 nmol/mg protein
same,Serum TAC,[2]; [8],0.64 U/mL
same,Serum TBARS,[2]; [8],1.64 nmol/mL
same,Liver CAT,[2]; [9],increased
same,Liver GSHPx,[2]; [9],increased
same,Liver SOD,[2]; [9],increased
same,Liver TBARS,[2]; [9],decreased
same,Liver CAT,[2]; normal diet rats,306.14 U/mg protein
same,Liver GSHPx,[2]; normal diet rats,50.29 U/mg protein
same,Liver SOD,[2]; normal diet rats,198.57 U/mg protein
same,Liver TBARS,[2]; normal diet rats,1.56 nmol/mg protein
same,Serum TAC,[2]; normal diet rats,1.19 U/mL
same,Serum TBARS,[2]; normal diet rats,0.67 nmol/mL
same,iNOS in retina tissue (effect in words),[3],decreased
same,BCO2 expression in liver tissue (effect in words),[4]; FIG. 13,upregulate
same,Nrf2 expression in liver tissue (effect in words),"[4]; HFD rats, FIG. 16",decrease
same,NFkB in liver tissue (effect in words),"[4]; HFD rats, FIG. 17",decreased
same,HO-1 in liver tissue (effect in words),"[4]; HFD rats, FIG. 18",decreased
same,IRS-1 in liver (effect in words),"[4]; HFD rats, FIG. 19",increased
same,enhancement of liver HO-1 level,[4]; [10],1.41 fold
same,enhancement of liver p-IRS1 level,[4]; [10],1.33 fold
same,inhibition of liver NFkB expression,[4]; [10],22%
same,inhibition of liver TNF-α expression,[4]; [10],14%
same,PPAR gamma in liver tissue (effect in words),"[4]; HFD treated rats, FIG. 15",activated
same,ACC alpha expression (FIG. 4 bar result),[5],0.9
same,PPAR gamma expression (FIG. 4 bar result),[5],0.7
same,Feed intake,[6]; HFD rats,16.87 g/day
same,Final BW,"[6]; HFD rats, 2.5 mg/kg",decrease
same,Liver (weight),"[6]; HFD rats, 2.5 mg/kg",decreased
same,Visceral fat,"[6]; HFD rats, 2.5 mg/kg",decreased
same,Final BW,[6]; [8],325.43 g
same,Liver (weight),[6]; [8],18.46 g
same,Visceral fat,[6]; [8],14.93 g
same,Final BW,[6]; [9],significantly reduced
same,Visceral fat,[6]; [9],a tendency towards a decrease
same,Feed intake,[6]; normal diet rats,23.88 g/day
same,Final BW,[6]; normal diet rats,290.29 g
same,Liver (weight),[6]; normal diet rats,12.74 g
same,Visceral fat,[6]; normal diet rats,7.75 g
same,Adiponectin,"[7]; HFD rats, 2.5 mg/kg",decreased
same,Glucose,"[7]; HFD rats, 2.5 mg/kg",significantly reduced
same,Insulin,"[7]; HFD rats, 2.5 mg/kg",significantly reduced
same,Leptin,"[7]; HFD rats, 2.5 mg/kg",significantly reduced
same,Adiponectin,[7]; normal diet rats,10.8 µg/mL
same,FFA,[7]; normal diet rats,1.12 mM
same,Glucose,[7]; normal diet rats,78.29 mg/dL
same,HDL-C,[7]; normal diet rats,17.00 mg/dL
same,Insulin,[7]; normal diet rats,1.73 ng/mL
same,LDL-C,[7]; normal diet rats,25.00 mg/dL
same,Leptin,[7]; normal diet rats,30.43 ng/mL
same,T-C (total cholesterol),[7]; normal diet rats,48.6 mg/dL
same,TG,[7]; normal diet rats,20.57 mg/dL
